# Biological target: T1, MD-2 (TLR4/MD-2 complex) (Homo sapiens, UniProt Q9Y6Y9)
# T1 construct: gene LY96; Recombinant human TLR4/MD2 complex; with TLR4
# Assay: SPR (Biacore X100) on immobilized recombinant human TLR4/MD-2; agonism supported in HEK-Blue hTLR4 cells
# Format: binding
# T1 sequence (Q9Y6Y9 19-160): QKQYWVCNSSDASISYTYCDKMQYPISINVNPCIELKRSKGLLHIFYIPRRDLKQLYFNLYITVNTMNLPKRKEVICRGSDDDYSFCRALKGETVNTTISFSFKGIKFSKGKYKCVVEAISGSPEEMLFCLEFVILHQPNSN
# T1 sequence (O00206 24-839 partner): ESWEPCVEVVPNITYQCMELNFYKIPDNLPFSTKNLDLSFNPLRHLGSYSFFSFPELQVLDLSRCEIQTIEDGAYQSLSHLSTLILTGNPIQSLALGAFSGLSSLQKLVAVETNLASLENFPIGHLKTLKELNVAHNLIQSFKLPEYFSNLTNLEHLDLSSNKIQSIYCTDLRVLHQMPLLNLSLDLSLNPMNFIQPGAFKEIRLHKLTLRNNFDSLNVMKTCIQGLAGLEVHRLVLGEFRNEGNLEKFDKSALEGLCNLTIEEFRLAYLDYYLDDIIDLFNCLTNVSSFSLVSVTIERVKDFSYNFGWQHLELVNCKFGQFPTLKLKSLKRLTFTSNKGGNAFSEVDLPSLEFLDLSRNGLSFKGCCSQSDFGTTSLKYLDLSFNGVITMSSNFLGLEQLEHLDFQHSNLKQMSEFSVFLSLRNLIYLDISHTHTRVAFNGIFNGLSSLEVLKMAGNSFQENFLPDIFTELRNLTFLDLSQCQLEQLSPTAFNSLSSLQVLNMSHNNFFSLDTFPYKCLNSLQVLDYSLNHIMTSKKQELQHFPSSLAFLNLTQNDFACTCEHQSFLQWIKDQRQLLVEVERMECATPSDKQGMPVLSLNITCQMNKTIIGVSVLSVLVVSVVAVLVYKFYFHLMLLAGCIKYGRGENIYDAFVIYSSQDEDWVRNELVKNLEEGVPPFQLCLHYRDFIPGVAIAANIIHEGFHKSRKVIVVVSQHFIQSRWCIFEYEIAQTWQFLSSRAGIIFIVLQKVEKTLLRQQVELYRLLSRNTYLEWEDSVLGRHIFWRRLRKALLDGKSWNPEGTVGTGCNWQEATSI
row,Compound,Kd [nM]
1,CCCCCCCCCCCCCC(=O)N[C@H]1[C@@H](OP(=O)(O)O)O[C@H](CO)[C@@H](OC(=O)CCCCCCCCCCCCC)[C@@H]1OC(=O)CCCCCCCCCCCCC [FP11],180
2,CCCCCCCCCCCC(=O)N[C@H]1[C@@H](OP(=O)(O)O)O[C@H](CO)[C@@H](OC(=O)CCCCCCCCCCC)[C@@H]1OC(=O)CCCCCCCCCCC [FP18],570

# From PMC8404200, “Synthetic Glycolipids as Molecular Vaccine Adjuvants: Mechanism of Action in Human Cells and In Vivo Activity” (Journal of Medicinal Chemistry, 2021)
